Here are results for 18 compounds from patent US5817689A, “Indole derivatives having a 2-phenyl-ethanolamino-substituted lower alkyl group at the 2-or 3-position thereof” (priority 1994, dated 1998).

The target in experiment [1] is T1, human β2 -adrenergic receptor (Homo sapiens, UniProt P07550).
T1 construct: expressed in transfected cells; host or cells: CHO-K1, clone CHO/pKREX21-8
Description: Human β2-adrenergic receptor-stimulating activity (cAMP accumulation in CHO/pKREX21-8 cells). The format is cell-based. As to conditions: for Emax: read-out: I.A. value β2 -receptor; for I.A. value β2 -receptor: intrinsic activity: maximal cAMP response relative to 10^-5 M (-)-isoproterenol = 100%. An excerpt:
cDNA was synthesized with Poly(A)^+ RNA derived from human brain (Clontech: trade number; CL6516-1) by using SuperScript Systems (Life Technologies).
After the reaction mixture was digested with restriction endonucleases Sse8387I and HindIII, about 1.4 kbp fragment was isolated by electrophoresis. This fragment was ligated with expression vector pKCN1 digested with restriction endonucleases Sse8387I and HindIII, and was introduced into E. coli HB101 in a conventional manner. Plasmid DNA was prepared from the selected transformant, and the nucleotide sequence of the about 1.4 kbp fragment obtained by digestion of this plasmid DNA with restriction endonucleases Sse8387I and HindIII was determined. […] This plasmid was named as pKREX21 for highly expressing human β2 -adrenergic receptor, and was introduced into CHO-K1 in the same manner as the method of establishment of the cell line highly expressing human β3 -adrenergic receptor.
(§1) Experiment 1 Human β-adrenergic receptor-stimulating activity:
(§2) The cells were peeled off by incubation with phosphate-buffered saline containing 0.5 mM EDTA at 37° C. for 10 minutes after the medium was removed. The CHO/pKREX10-36 cells were collected by centrifugation, and suspended in Hanks' balanced salts (ICN Biomedicals) containing 1 mM L-ascorbic acid and 1 mM 3-isobutyl-1-methylxanthine at the concentration of about 2×10^6cells/ml. This suspension (100μl) and a test compound were mixed in the same balanced salt (500 μl) and incubated at 37° C. for 30 minutes, followed by boiling for 5 minutes to terminate the reaction. After centrifugation of the reaction mixture, the amount of cAMP in the supernatant was measured by using cAMP EIA System (Amersham).
Similarly, the amount of cAMP was measured by using CHO/pKREX21-8 for highly expressing human β2 -adrenergic receptor instead of the CHO/pKREX10-36 for highly expressing human β3 -adrenergic receptor.
A general note: Cyclic AMP is a second messenger, typically raised through Gs and lowered through Gi signalling.

Experiment [2] concerns the target T2, human β3 -adrenergic receptor (Homo sapiens, UniProt P13945).
T2 construct: expressed in transfected cells; host or cells: CHO-K1 (ATCC CCL 61), clone CHO/pKREX10-36
The experiment is described as follows: Human β3-adrenergic receptor-stimulating activity (cAMP accumulation in CHO/pKREX10-36 cells). The format is cell-based. As to conditions: for Emax: read-out: I.A. value β3 -receptor; for stimulating activity of human β3 -adrenergic receptor (in words): conclusion from Table 5; for Ratio of EC50 β2 /β3: ratio of EC50 β2-receptor to EC50 β3-receptor. The procedure: Establishment of the cell line highly expressing human β3 -adrenergic receptor
Separately, another expression vector for animal cells, pSV2-neo [Southern and Berg, J. Mol. Appl. Genet. […] These DNAs were ligated with DNA Ligation Kit (Takara Shuzo Co., Ltd.) and were introduced into E. coli HB101 in a conventional manner to give the transformants. Plasmid DNAs were prepared from the transformants and digested with a restriction endonuclease PstI. A clone which produced about 3.8 kbp, 2.2 kbp, 1.4 kbp, and 0.9 kbp fragments was selected to give a plasmid named pKCN0.
The reaction mixture was used for transformation of E. coli HB101 and plasmid DNAs were prepared from the selected transformants. The plasmid DNAs were digested with restriction endonucleases DraI and HindIII, and a clone which produced about 430 bp fragment was selected to give a plasmid named pKCN1 for expression vector.
10% Dimethyl sulfoxide was added to the reaction mixture at the PCR reaction.
After the reaction mixture was digested with restriction endonucleases Sse8387I and StuI, about 1.3 kbp fragment was isolated by electrophoresis. This fragment was ligated with expression vector pKCN1 which was digested with restriction endonucleases Sse8387I and EcoRV, and the resultant was introduced into E. coli HB101 in a conventional manner. Plasmid DNA was prepared from the selected transformant and the nucleotide sequence of the about 1.3 kbp fragment obtained by digestion of the plasmid DNA with restriction endonucleases Sse8387I and XhoI was determined. […] This plasmid for expressing human β3 -adrenergic receptor was named as pKREX10.
The reaction mixture was filtered with glass filter GF/C (Whatman) presoaked with 0.3% polyethyleneimine and washed by using BIO-DOT apparatus (Bio-Rad Laboratories), and the radioactivity on the filter was counted by γ-ray counter. […] Establishment of the cell line highly expressing human β2 -adrenergic receptor
as §1, §2

Experiment [3] deals with glucose level in the blood. Description: Blood glucose reducing activity on fasted mouse. As to conditions: 3 h, read-out: Blood glucose reducing activity (ED25). The format is in vivo, ddY male mouse. As to the method:
Experiment 2 Blood glucose reducing activity on fasted mouse:
A test compound suspended in 0.5% tragacanth solution was orally administered to a ddY male mouse (weight: 20-30 g) under being fasted, and the blood was collected before and at three hours after the administration of the test compound. The glucose level in the blood was determined by the method of Kunst A., et al. (Hexokinase/G6PDH method) [Bergmeyer, H. U. (eds.), […], vol. VI, 3rd edition, Verlag Chemie GmbH, Weinheim·Deerfield Beach, Florida·Basel, 163-172 (1984)]. The blood glucose reducing activity of the test compound was expressed by ED25 value which is a concentration of the test compound required to reduce the glucose level in blood before the administration of the test compound by 25%. Gliclazide was used as a reference compound which is a commercially available drug for treatment of diabetes mellitus.

The mark [4] stands for this setting: 50% of cAMP accumulation, CHO/pKREX10-36, 37° C., 30 minutes, read-out: EC50 value β3 -receptor.
The mark [5] stands for this setting: 25% reduction of blood glucose, fasted ddY male mice, oral, three hours after administration.

Structures are written as SMILES. Structures can show the parent of a compound that is named as a salt. Where two headings read alike, the source gives them in different places.

T1 sequence (P07550 whole entry): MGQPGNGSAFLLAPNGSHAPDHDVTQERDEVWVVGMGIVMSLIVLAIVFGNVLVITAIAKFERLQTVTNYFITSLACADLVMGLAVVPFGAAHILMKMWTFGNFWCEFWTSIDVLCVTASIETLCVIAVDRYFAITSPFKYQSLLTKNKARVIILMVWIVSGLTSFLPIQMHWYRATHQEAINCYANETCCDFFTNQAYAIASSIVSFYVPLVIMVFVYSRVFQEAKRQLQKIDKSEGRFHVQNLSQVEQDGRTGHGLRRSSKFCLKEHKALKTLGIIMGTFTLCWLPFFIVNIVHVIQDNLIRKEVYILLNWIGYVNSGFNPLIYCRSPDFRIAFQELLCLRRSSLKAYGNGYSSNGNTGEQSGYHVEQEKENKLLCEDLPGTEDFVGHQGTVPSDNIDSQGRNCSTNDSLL
T2 sequence (P13945 whole entry): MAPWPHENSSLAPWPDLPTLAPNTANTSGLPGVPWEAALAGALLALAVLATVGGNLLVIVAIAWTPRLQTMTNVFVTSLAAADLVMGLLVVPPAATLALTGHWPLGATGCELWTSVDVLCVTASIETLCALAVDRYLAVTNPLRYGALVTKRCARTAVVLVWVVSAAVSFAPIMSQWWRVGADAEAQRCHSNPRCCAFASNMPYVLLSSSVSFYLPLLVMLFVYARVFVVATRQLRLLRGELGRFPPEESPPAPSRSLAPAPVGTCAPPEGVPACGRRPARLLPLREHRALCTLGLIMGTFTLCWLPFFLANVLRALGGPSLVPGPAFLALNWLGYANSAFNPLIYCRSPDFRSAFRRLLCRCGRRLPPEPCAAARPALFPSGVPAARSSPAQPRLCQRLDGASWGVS

As to `COc1cccc2c(CC(C)NC[C@H](O)c3cccc(Cl)c3)c[nH]c12` (single isomer, unassigned) [Example 1-A-b, 2-[(2S or 2R)-3-(7-methoxyindol-3-yl)-2-propylamino]-(1R)-1-(3-chlorophenyl)ethanol], in experiment [1], a half-maximal effect (EC50) was put at 3.6 nM and the Emax came out at 35%. Further, in experiment [2], the EC50 is 0.36 nM and the Emax was determined as 89%.
For the compound `OC(CNCCc1c[nH]c2ccc(Cl)cc12)c1ccccc1` (centres unmarked) [Compound A, reference compound], the 50% effective concentration (EC50) in experiment [1] (50% of cAMP accumulation, CHO/pKREX21-8, 37° C., 30 minutes, read-out: EC50 value β2 -receptor) turned out to be 410 nM. In addition, the Emax in experiment [1] came to 16%. Also, in experiment [2] (setting [4]), the concentration giving a half-maximal response (EC50) came to 910 nM. For the same compound, in experiment [2], the “stimulating activity of human β3 -adrenergic receptor (in words)” value (from here on “stimulating activity of human β3”) is on record as “quite weak human β3 -adrenergic receptor-stimulating activity”, the “Ratio of EC50 β2 /β3” value is 0.5 and the Emax is 92%.
As for `OC(CNCCc1c[nH]c2ccccc12)c1ccccc1` (centres unmarked) [Compound B, reference compound], the “I.A. value β2 -receptor” value in experiment [1] stood at 8%. The EC50 in experiment [2] (setting [4]) was determined as 180 nM. In experiment [2], the “stimulating activity of human β3” value is on record as “quite weak human β3 -adrenergic receptor-stimulating activity” and the Emax was 100%.
On the same counts, the results for `O=[N+]([O-])c1cccc(C(O)CNCCc2c[nH]c3ccccc23)c1` (centres unmarked) [Compound C, reference compound] are 5%, 540 nM, “quite weak human β3 -adrenergic receptor-stimulating activity” and 105%.
Consider `CCOc1cccc2c(CC(C)NCC(O)c3cccc(Cl)c3)c[nH]c12` (centres unmarked) [Example 2, 2-[3-(7-ethoxyindol-3-yl)-2-propylamino]-1-(3-chlorophenyl)ethanol], for which, in experiment [1], the EC50 amounted to 55 nM and the Emax is 31%. Further, the ED25 in experiment [3] (po) was determined as 0.03 mg/kg. Also, in experiment [2], the response was half-maximal at 2 nM (EC50), the “stimulating activity of human β3” value is reported as “potent stimulating activity of human β3 -adrenergic receptor” and the Emax turned out to be 117%.
As to `CCOc1cccc2c(CC(C)NC[C@H](O)c3cccc(Cl)c3)c[nH]c12` (stereo partly drawn) [Example 2-A, 2-[3-(7-ethoxyindol-3-yl)-2-propylamino]-(1R)-1-(3-chlorophenyl)ethanol], the results for the EC50 in experiment [1] and in experiment [2] (setting [4]) were 15 nM and 0.96 nM, respectively. For the same compound, the Emax in experiment [1] was 23%; in experiment [2], 96%.
As to `COc1ccc2c(CC(C)NCC(O)c3cccc(Cl)c3)c[nH]c2c1` (centres unmarked) [Example 3], the EC50 is 170 nM in experiment [1] and 22 nM in experiment [2] (setting [4]). For the same compound, the Emax in experiment [1] is 22%; in experiment [2], 102%. The ED25 in experiment [3] (po) was determined as 3.3 mg/kg.
As for `CC(Cc1c[nH]c2c(OCc3ccccc3)cccc12)NCC(O)c1cccc(Cl)c1` (centres unmarked) [Example 4], in experiment [1], the concentration giving a half-maximal response (EC50) came out at 43 nM and the Emax was found to be 36%. In addition, in experiment [2], a half-maximal response (EC50) required 16 nM, the “Ratio of EC50 β2 /β3” value worked out at 2.7 and the Emax is 116%.
With `Cc1ccc2c(CC(C)NCC(O)c3cccc(Cl)c3)c[nH]c2c1` (centres unmarked) [Example 5], the EC50 in experiment [1] was determined as 33 nM; in experiment [2] (setting [4]) it was 12 nM. Also, the results for the Emax in experiment [1] and in experiment [2] were 41% and 95%, respectively. Moreover, the ED25 in experiment [3] (po) worked out at 4.5 mg/kg.
Consider `Cc1cccc2c(CC(C)NCC(O)c3cccc(Cl)c3)c[nH]c12` (centres unmarked) [Example 6], for which, in experiment [1], the response was half-maximal at 88 nM (EC50) and the Emax amounted to 19%. Moreover, the ED25 in experiment [3] (po) is 4.5 mg/kg. Besides, in experiment [2], the midpoint of the response, the EC50, lay at 35 nM; the “Ratio of EC50 β2 /β3” value is 2.5; the Emax is 91%.
Regarding `COC(=O)COc1ccc2c(CC(C)NCC(O)c3cccc(Cl)c3)c[nH]c2c1` (centres unmarked) [Example 7], in experiment [1], the EC50 was 33 nM and the Emax came out at 15%. In addition, in experiment [3] (po), the ED25 came to 1.5 mg/kg. For the same compound, in experiment [2], the EC50 worked out at 25 nM, the “Ratio of EC50 β2 /β3” value is given as 1.3 and the Emax was determined as 76%.
As for `COC(=O)c1ccc2c(CC(C)NCC(O)c3cccc(Cl)c3)c[nH]c2c1` (centres unmarked) [Example 8], the “I.A. value β2 -receptor” value in experiment [1] is given as 5%. For the same compound, the ED25 in experiment [3] (po) came to 1.4 mg/kg. In addition, in experiment [2], the midpoint of the response, the EC50, lay at 31 nM and the Emax turned out to be 92%.
On to `Cc1cccc2[nH]cc(CC(C)NCC(O)c3cccc(Cl)c3)c12` (centres unmarked) [Example 10], for which the ED25 in experiment [3] (setting [5]) was found to be 0.1 mg/kg.
Take `COc1ccc2c(CC(C)NCC(O)c3cccc(Cl)c3)c[nH]c2c1OC` (centres unmarked) [Example 12]: in experiment [1], the midpoint of the response, the EC50, lay at 31 nM and the Emax came to 13%. For the same compound, in experiment [2], the EC50 stood at 4 nM, the “Ratio of EC50 β2 /β3” value is 7.8 and the Emax was 98%.
Turning to `CC(Cc1c[nH]c2cc(OCC(=O)O)ccc12)NCC(O)c1cccc(Cl)c1` (centres unmarked) [Example 13, 2-[3-(6-carboxymethoxyindol-3-yl)-2-propylamino]-1-(3-chlorophenyl)ethanolsodium salt], the “I.A. value β2 -receptor” value in experiment [1] is listed as 6%. Besides, in experiment [2], a half-maximal effect (EC50) was put at 31 nM and the Emax was 101%.
For the compound `COC(=O)COc1cccc2c(CC(C)NC[C@H](O)c3cccc(Cl)c3)c[nH]c12` (stereo partly drawn) [Example 14, 2-[3-(7-methoxycarbonylmethoxyindol-3-yl)-2-propylamino]-(1R)-1-(3-chlorophenyl)ethanol], in experiment [1], the 50% effective concentration (EC50) came to 6 nM and the Emax was 29%. In experiment [2], the concentration giving a half-maximal response (EC50) was determined as 0.43 nM, the “stimulating activity of human β3” value is given as “potent stimulating activity of human β3 -adrenergic receptor”, the “Ratio of EC50 β2 /β3” value is recorded as 14.0 and the Emax was 95%. Further, in experiment [2] (β3 versus β2, conclusion from Table 5), the “adrenoceptor selectivity for human β3 -adrenergic receptor (in words)” value was “excellent adrenoceptor selectivity for human β3 -adrenergic receptor”.
As for `Cc1ccc(S(=O)(=O)NC(=O)NN2CC3CCCC3C2)cc1` (centres unmarked) [Gliclazide, reference compound], the ED25 in experiment [3] (setting [5]) is 0.87 mg/kg.
Take `CC(C)NC[C@H](O)c1ccc(O)c(O)c1` [IP, (-)Isoproterenol, reference compound]: in experiment [2] (intrinsic activity: maximal cAMP response relative to 10^-5 M (-)-isoproterenol = 100%), the “I.A. value β3 -receptor” value is listed as 100%.

Usually EC50 stands for the concentration that produces a half-maximal response.
